The record followed here is US6376497B1, “Antifungal azole derivatives having a fluorinated vinyl group and process for preparing same” (Korea Research Institute of Chemical Technology, priority 1999, dated 2002).

Assay in all cases: In vitro antifungal activity, microbroth dilution MIC
Holding throughout (type): cell-based

Assay [1] concerns Aspergillus furnigatus B. 19119. Particulars: A furnigatus B. 19119, RPMI-1640, 35° C., 4 to 48 hours. On the procedure: (§1) In vitro antifungal activities of the inventive antifungal compounds were evaluated using the test strains shown in Table VIII by the following microbroth dilution method which is a modified version of the procedure recommended by National Committee for Clinical Laboratory Standards(see National Committee for Clinical Laboratory Standards, 1992, Reference methods for broth dilution antifungal susceptibility testing of yeasts, Proposed standard M27-P, National Committee for clinical laboratory standards, Villanova, Pa; and National Committee for Clinical Laboratory Standards, 1995, Reference methods for broth dilution antifungal susceptibility testing of yeasts. Tentative standard M27-T, National Committee for clinical laboratory standards, Villanova, Pa).
(§2) Sabourad Dextrose Agar(Difco) was used as a culture medium, and RPMI-1640 broth(Sigma. Co. w/L-glutamine, wo/NaHCO3)(0.165 M MOPS, pH 7.0), as a dilution medium.
(§3) Each of the test strains were subcultured in Sabourad Dextrose Agar medium twice and a stain sample was taken from prominent colonies and suspended in sterile physiological saline solution in a cap tube. The turbidity of the suspension was adjusted to that of the Mcfarland 0.5 standard sample(approximately 10^6 CFU/ml). Then the suspension was diluted 500-fold with sterile RPMI-1640 liquid medium to 2×10^3 CFU/ml.
(§4) Each of the test compounds(the compounds obtained in Examples 1 to 150 and comparative compounds, i.e., fluconazole(FCZ) and itraconazole (ICZ)), was dissolved in DMSO to give a stock solution having a concentration of 4000 μg/ml and the stock solution was successively diluted to obtain test solutions having test compound concentrations of 200, 100, 50, 25, 12.5, 6.25, 3.13, 1.56, 0.78, 0.39, 0.20 and 0.10 μg/ml, respectively.
(§5) 0.1 ml portion of the test solutions were added to the wells of a sterile 96 well plate. Then, 0.1 ml portion of each of the test strain solutions were added successively to the wells and the plate was incubated at 35° C. for 4 to 48 hours.
(§6) Minimal inhibitory concentration(MIC) of each compound was defined as the concentration of the test compound where no growth of the strain could be observed.

In assay [2] the test system is Aspergillus niger A. 16404. Particulars: A. niger A. 16404, RPMI-1640, 35° C., 4 to 48 hours. On the procedure:
as §1, §2, §3, §4, §5, §6

The test system of assay [3] is Candida albicans A. 10231. Particulars: C. albicans A. 10231, RPMI-1640, 35° C., 4 to 48 hours. As for the experimental part:
as §1, §2, §3, §4, §5, §6

Another assay concerns Candida albicans C1-2. As to conditions: C. albicans C1-2, RPMI-1640, 35° C., 4 to 48 hours. On the procedure: as §1, §2, §3, §4, §5, §6
The test system of assay [4] is Candida albicans IFO. 1385. Particulars: C. albicans IFO. 1385, RPMI-1640, 35° C., 4 to 48 hours. As for the experimental part: as §1, §2, §3, §4, §5, §6
The test system of another assay is Candida krusei K. 11655. As to conditions: C. krusei K. 11655, RPMI-1640, 35° C., 4 to 48 hours. As for the experimental part:
as §1, §2, §3, §4, §5, §6

The subject of assay [5] is Candida parapsitosis A. 7330. Particulars: C. parapsitosis A. 7330, RPMI-1640, 35° C., 4 to 48 hours. On the procedure: as §1, §2, §3, §4, §5, §6
Assay [6] deals with Candida pseudotropicalis K. 11658. Particulars: C. pseudotropicalis K. 11658, RPMI-1640, 35° C., 4 to 48 hours. On the procedure:
as §1, §2, §3, §4, §5, §6

Assay [7] deals with Candida tropicalis A. 13803. Particulars: C. tropicalis A. 13803, RPMI-1640, 35° C., 4 to 48 hours. On the procedure:
as §1, §2, §3, §4, §5, §6

The test system of assay [8] is Cryptococcus neoformans A. 34144. As to conditions: Cry. neoformans A. 34144, RPMI-1640, 35° C., 4 to 48 hours. On the procedure: as §1, §2, §3, §4, §5, §6
The subject of assay [9] is Cryptococcus neoformans B. 42419. Particulars: Cry. neoformans B. 42419, RPMI-1640, 35° C., 4 to 48 hours. As for the experimental part:
as §1, §2, §3, §4, §5, §6

The subject of assay [10] is Cryptococcus neoformans IFM. 40092. As to conditions: Cry. neoformans IFM. 40092, RPMI-1640, 35° C., 4 to 48 hours. On the procedure: as §1, §2, §3, §4, §5, §6
For assay [11], the system named is Torulopsis glabrata B. 16205. Particulars: T. glabrata B. 16205, RPMI-1640, 35° C., 4 to 48 hours. As for the experimental part: as §1, §2, §3, §4, §5, §6
Assay [12] relates to Trichophyton mentagrophytes A. 9129. As to conditions: T. mentagrophytes A. 9129, RPMI-1640, 35° C., 4 to 48 hours. On the procedure:
as §1, §2, §3, §4, §5, §6

The subject of assay [13] is Trichophyton mentagrophytes B. 32663. Particulars: T. mentagrophytes B. 32663, RPMI-1640, 35° C., 4 to 48 hours. As for the experimental part: as §1, §2, §3, §4, §5, §6

With `Cc1cc(C)cc(C=C(F)OCC2COC(Cn3ccnc3)(c3ccc(F)cc3F)O2)c1` (mixture of isomers) [Ex. 41], the “Minimal inhibitory concentration (MIC)” value worked out at 6.25 µg/mL in assay [1]; 25.0 µg/mL in assay [2]; 12.5 µg/mL in assay [3]; 12.5 µg/mL with Candida albicans C1-2; 0.78 µg/mL in assay [4]; 50.0 µg/mL with Candida krusei K. 11655. Also, the “Minimal inhibitory concentration (MIC)” value in assay [5] turned out to be 100 µg/mL; in assay [6], 25.0 µg/mL; in assay [7], 25.0 µg/mL; in assay [8], 3.13 µg/mL; in assay [9], 3.13 µg/mL; in assay [10] it was 0.78 µg/mL. The “Minimal inhibitory concentration (MIC)” value was found to be 6.25 µg/mL in [11], 6.25 µg/mL in assay [12] and 3.13 µg/mL in [13].

As for `Cc1cc(C)c(C=C(F)OCC2COC(Cn3ccnc3)(c3ccc(F)cc3F)O2)cc1C` (mixture of isomers) [Ex. 42], the “Minimal inhibitory concentration (MIC)” value in [1] turned out to be 12.5 µg/mL; in [2], 100 µg/mL; in [3] it was 12.5 µg/mL; in the assay with Candida albicans C1-2, 12.5 µg/mL; in assay [4], 0.78 µg/mL; with Candida krusei K. 11655, 25.0 µg/mL. For the same compound, the “Minimal inhibitory concentration (MIC)” value in assay [5] is 25.0 µg/mL; in assay [6], 25.0 µg/mL; in assay [7], 25.0 µg/mL; in assay [8], 0.78 µg/mL; in assay [9] it was 0.78 µg/mL; in assay [10], “≦0.10 μg/ml”. Moreover, the “Minimal inhibitory concentration (MIC)” value in [11] amounted to 6.25 µg/mL; in assay [12], 6.25 µg/mL; in assay [13] it was 1.56 µg/mL.

Regarding `COc1cccc(C=C(F)OCC2COC(Cn3ccnc3)(c3ccc(F)cc3F)O2)c1` (mixture of isomers) [Ex. 43], the “Minimal inhibitory concentration (MIC)” value is 12.5 µg/mL in [1]; more than 100 µg/mL in assay [2]; 25.0 µg/mL in [3]; 25.0 µg/mL with Candida albicans C1-2; 0.78 µg/mL in [4]; 12.5 µg/mL with Candida krusei K. 11655. Also, the “Minimal inhibitory concentration (MIC)” value was 12.5 µg/mL in [5]; 6.25 µg/mL in assay [6]; 50.0 µg/mL in assay [7]; 1.56 µg/mL in assay [8]; 1.56 µg/mL in assay [9]; 0.39 µg/mL in assay [10]. The “Minimal inhibitory concentration (MIC)” value in assay [11] is 6.25 µg/mL; in assay [12], 6.25 µg/mL; in [13], 1.56 µg/mL.

In the case of `CCOc1ccc(C=C(F)OCC2COC(Cn3ccnc3)(c3ccc(F)cc3F)O2)cc1` (mixture of isomers) [Ex. 44], the “Minimal inhibitory concentration (MIC)” value was 12.5 µg/mL in [1]; more than 100 µg/mL in assay [2]; 25.0 µg/mL in [3]; 25.0 µg/mL with Candida albicans C1-2; 0.39 µg/mL in [4]; 12.5 µg/mL with Candida krusei K. 11655. Further, the “Minimal inhibitory concentration (MIC)” value in assay [5] was 12.5 µg/mL; in [6] it was 6.25 µg/mL; in [7] it was 50.0 µg/mL; in assay [8], 1.56 µg/mL; in [9], 1.56 µg/mL; in assay [10], 0.39 µg/mL. Moreover, the “Minimal inhibitory concentration (MIC)” value amounted to 6.25 µg/mL in assay [11], 6.25 µg/mL in assay [12] and 1.56 µg/mL in assay [13].

Take `CC(C)Oc1cccc(C=C(F)OCC2COC(Cn3ccnc3)(c3ccc(F)cc3F)O2)c1` (mixture of isomers) [Ex. 45]: the “Minimal inhibitory concentration (MIC)” value amounted to 12.5 µg/mL in assay [1]; 100 µg/mL in [2]; 25.0 µg/mL in assay [3]; 25.0 µg/mL with Candida albicans C1-2; 0.39 µg/mL in assay [4]; 12.5 µg/mL in the assay on Candida krusei K. 11655. The “Minimal inhibitory concentration (MIC)” value in assay [5] is 12.5 µg/mL; in assay [6], 6.25 µg/mL; in assay [7] it was 50.0 µg/mL; in [8], 1.56 µg/mL; in [9] it was 1.56 µg/mL; in [10] it was 0.39 µg/mL. The entries for the “Minimal inhibitory concentration (MIC)” value in assay [11], in assay [12] and in assay [13] were 6.25 µg/mL, 6.25 µg/mL and 1.56 µg/mL, respectively.

Turning to `FC(=Cc1ccc(Cl)cc1)OCC1COC(Cn2ccnc2)(c2ccc(F)cc2F)O1` (mixture of isomers) [Ex. 47], the “Minimal inhibitory concentration (MIC)” value in assay [1] came out at 1.56 µg/mL; in assay [2], 6.25 µg/mL; in [3], 12.5 µg/mL; with Candida albicans C1-2 it was 12.5 µg/mL; in assay [4], 0.20 µg/mL; in the assay on Candida krusei K. 11655 it was 12.5 µg/mL. The “Minimal inhibitory concentration (MIC)” value in assay [5] was 6.25 µg/mL; in [6] it was 6.25 µg/mL; in assay [7], 25.0 µg/mL; in assay [8] it was 0.78 µg/mL; in [9], 0.78 µg/mL; in assay [10] it was “≦0.10 μg/ml”. Also, the “Minimal inhibitory concentration (MIC)” value is 6.25 µg/mL in assay [11], 0.39 µg/mL in assay [12] and “≦0.10 μg/ml” in assay [13].
